Values of other authors, collected in patent publication US7511156B2, “Analogs of Salinosporamide A” (President and Fellows of Harvard College, priority 2004, dated 2009).
Residues, ends and D or L forms follow the SMILES beside them. *: point of attachment. Cbz = O=C(OCc1ccccc1)*

Test system: PC12 cells
Conditions: Tsubuki et al. 1993

In the case of `CC(C)C[C@@H](C=O)NC(=O)[C@H](CC(C)C)NC(=O)[C@H](CC(C)C)NC(=O)OCc1ccccc1` [benzyloxycarbonyl (Z)-Leu-Leu-leucinal] (Cbz-Leu-Leu-Leu-aldehyde), the “optimal concentration inducing neurite outgrowth” value is listed as 30 nM.
